Reference: patent US8278285B2, “Gastric carcinoma gene ZNF312b, a protein translated from the gene, and a diagnostic kit and a screening method for anticancer agents using the same” (Korea Research Institute of Bioscience and Biotechnology, priority 2007, dated 2012)

Experiments:
K-ras / ERK pathway = assay: Western blotting of cell proliferation signal pathway after ZNF312b inhibition; type: cell-based, human; settings: stomach cancer cell line transfected with siRNA, FIG. 24
Protocol: First, lysis buffer A [20 mM HEPES (pH7.5), 150 mM NaCl, 1 mM EDTA, 2 mM EGTA, 1% Triton X-100, 10% glycerol, protease cocktail I, II (Sigma, USA)] was added to the cells, which stood at 4° C. for 20 minutes. The cell lysate was transferred into a new tube, followed by centrifugation at 4° C. at 15,000 rpm for 10 minutes to obtain protein. The cell lysate was heated at 95° C. for 10 minutes after adding 5× sample buffer, resulting in gel loading sample which proceeded to SDS PAGE gel electrophoresis. The protein bands separated according to their molecular weights by the above electrophoresis were transferred onto nitrocellulose membrane by using transfer kit (Bio-Rad, USA), followed by blocking for one hour with 5% skim milk. Next, each antibody [HA antibody for the detection of ZNF312b, and tubulin antibody for the detection of the control tubulin] was treated thereto at 4° C. for 12 hours. The membrane was washed with TBST buffer (0.2% Tween 20), and then treated with a secondary antibody for 1 hour. The membrane was washed with TBST and developed using HRP detection kit (AB frontier, Korea).
To investigate whether the signal pathway system involved in the cell proliferation of stomach cancer cell line was affected by inhibition of ZNF312b gene, the present inventors inhibited the expression of ZNF312b in stomach cancer cell line by transfecting the cell line with si-ZNF312b-1. […]

ZNF312b gene = ZNF312b gene expression inhibition by siRNA; type: cell-based, human; settings: compared among three siRNAs, FIG. 3
Source text: To investigate the cell proliferation capacity of the stomach cancer cell line after inhibiting the expression of ZNF312b gene, three kinds of siRNAs [si-ZNF312b-1: 5′-GCA CTC TCT GCA TCT CAA C-3′ (SEQ. ID. NO: 6), si-ZNF312b-2: 5′-GTG TGT GGA AAG GTC TTT A-3′ (SEQ. ID. NO: 7), and si-ZNF312b-3′: 5′-GCA GTT CAA GTG CAA TAT C-3′ (SEQ. ID. NO: 8)] comprising 19 nucleotides of ZNF312b nucleotide sequence (SEQ. ID. NO: 1) were constructed, which were used for the investigation of ZNF312b gene expression inhibition.

## si-ZNF312b-1: siRNA of 19 nucleotides of ZNF312b sequence, 5′-GCA CTC TCT GCA TCT CAA C-3′ (SEQ. ID. NO: 6) (sense GCACTCTCTGCATCTCAAC; listed as DNA, chemistry not given here)
K-ras / ERK pathway
  ERK pathway activity (phosphorylation of MEK1/2 and ERK1/2): inactivation of ERK pathway
  K-ras expression: decrease of K-ras expression
ZNF312b gene
  ZNF312b gene expression inhibition: highest inhibition activity
